Assay results published in patent US20120129811A1, “TRICYCLIC INHIBITORS OF PRO-MATRIX METALLOPROTEINASE ACTIVATION” (priority 2010, published 2012).
Counter-ions that a name gives are not always drawn.

Legend:
[1] = target: T1, full-length proMMP9(1-707) activation by catalytic MMP3 (Homo sapiens, UniProt P14780, R574P); experiment: proMMP9/MMP3 P126 Activation Assay; format: biochemical
T1 construct: made in house; host or cells: proMMP9: HEK293 (secreted); MMP3: E. coli
Description: proMMP9/MMP3 P126 Activation Assay
The reaction volume was 50 μL. […] Reactivity of residual MMP3 towards P-126 substrate was minimal under these conditions.

[2] = target: T2, proMMP9(67-444;ΔFnII) (SEQ ID NO:5) (Homo sapiens, UniProt P14780, DEL216-390); experiment: ThermoFluor binding assay with proMMP9(67-444;ΔFnII)
T2 construct: start methionine (N); made in house; host or cells: E. coli BL21(DE3) RIL
T2 sequence (P14780 with tags, fused parts or gaps DEL216-390): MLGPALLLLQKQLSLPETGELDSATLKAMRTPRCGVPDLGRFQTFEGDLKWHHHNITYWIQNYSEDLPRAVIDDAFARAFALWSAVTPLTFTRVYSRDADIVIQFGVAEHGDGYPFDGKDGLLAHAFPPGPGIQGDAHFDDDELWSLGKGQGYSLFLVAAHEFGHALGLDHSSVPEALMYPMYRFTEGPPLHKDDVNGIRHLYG
Outline: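 Thermal shift of 3.5 μM proMMP9(67-444;ΔFnII), desalted beforehand, with 50 μM 1,8-ANS in 50 mM HEPES pH 7.0, 100 mM NaCl, 2.5 mM MgCl2, 300 μM CaCl2, 0.001% Tween-20. Heated 40–90 °C at 1 °C/min, fluorescence read at 500 nm; binding fitted from Tm shifts using DSC- and ThermoFluor-derived unfolding parameters.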

[3] = target: T3, proMMP13(1-268) (SEQ ID NO:7) (Homo sapiens, UniProt P45452); experiment: ThermoFluor binding assay with proMMP13(1-268)
T3 construct: 6xHis (C); made in house; host or cells: HEK293 (transient, secreted)
Description: The ThermoFluor® (TF) assay is a 384-well plate-based binding assay that measures thermal stability of proteins (Biomol Screen 2001, 6, 429-40; Biochemistry 2005, 44, 5258-66). The experiments were carried out using instruments available from Johnson & Johnson Pharmaceutical Research & Development, LLC. TF dye used in all experiments was […] (1,8-ANS) (Invitrogen: A-47).
Compounds were arranged in a pre-dispensed plate (Greiner Bio-one: 781280), wherein compounds were serially diluted in 100% DMSO across 11 columns within a series. Columns 12 and 24 were used as DMSO reference and contained no compound. For multiple compound concentration-response experiments, the compound aliquots (50 nL) were robotically predispensed directly into black 384-well polypropylene PCR microplates (Abgene: TF-0384/k) using a Cartesian Hummingbird liquid handler (DigiLab, Holliston, Mass.). Following compound dispense, protein and dye solutions were added to achieve the final assay volume of 3 μL. The assay solutions were overlayed with 1 μL of silicone oil (Fluka, type DC 200: 85411) to prevent evaporation.
Assay plates were robotically loaded onto a thermostatically controlled PCR-type thermal block and then heated from 40 to 90° C. at a ramp-rate of 1° C./min for all experiments. Fluorescence was measured by continuous illumination with UV light (Hamamatsu LC6) supplied via fiber optics and filtered through a band-pass filter (380-400 nm; >60D cutoff). Fluorescence emission of the entire 384-well plate was detected by measuring light intensity using a CCD camera (Sensys, Roper Scientific) filtered to detect 500±25 nm, resulting in simultaneous and independent readings of all 384 wells. A single image with 20-sec exposure time was collected at each temperature, and the sum of the pixel intensity in a given area of the assay plate was recorded vs temperature and fit to standard equations to yield the Tm (J Biomol Screen 2001, 6, 429-40).
Thermodynamic parameters necessary for fitting compound binding for each proMMP were estimated by differential scanning calorimetry (DSC) and from ThermoFluor® data. The heat capacity of unfolding for each protein was estimated from the molecular weight and from ThermoFluor® dosing data.
ThermoFluor® with proMMP13(1-268) (SEQ ID NO: 7)
The proMMP13(1-268) (SEQ ID NO:7) protein sample preparations included a desalting buffer exchange step via a PD-10 gravity column (GE Healthcare). The desalting buffer exchange was performed prior to diluting the protein to the final assay concentration of 3.5 μM. The concentration of proMMP13(1-268) (SEQ ID NO:7) was estimated spectrophotometrically based on a calculated extinction coefficient of ε280=37000 M^−1 cm^−1, a calculated molecular weight of 30.8 kDa, and calculated pI of 5.33. ThermoFluor® reference conditions were defined as follows: 100 μg/mL proMMP13(1-268) (SEQ ID NO:7), 25 μM 1,8-ANS, pH 7.0 Buffer (50 mM HEPES pH 7.0, 100 mM NaCl, 0.001% Tween-20, 2.5 mM MgCl2, 300 μM CaCl2). The thermodynamic parameters for proMMP13(1-268) (SEQ ID NO:7) are as follows: Tm (° C.)=67 (+/−0.1), ΔUH(Tm)) (cal mol^−1)=107000(+/−5000), ΔUSTm (cal mol^−1 K^−1)=318, ΔUCp (cal mol^−1 K^−1)=2600.

[4] = target: T4, proMMP9(20-445;ΔFnII) (SEQ ID NO:6) (Homo sapiens, UniProt P14780, DEL216-390); experiment: ThermoFluor binding assay with proMMP9(20-445;ΔFnII)
T4 construct: start methionine (N); made in house; host or cells: E. coli BL21(DE3) RIL
T4 sequence (P14780 with tags, fused parts or gaps DEL216-390): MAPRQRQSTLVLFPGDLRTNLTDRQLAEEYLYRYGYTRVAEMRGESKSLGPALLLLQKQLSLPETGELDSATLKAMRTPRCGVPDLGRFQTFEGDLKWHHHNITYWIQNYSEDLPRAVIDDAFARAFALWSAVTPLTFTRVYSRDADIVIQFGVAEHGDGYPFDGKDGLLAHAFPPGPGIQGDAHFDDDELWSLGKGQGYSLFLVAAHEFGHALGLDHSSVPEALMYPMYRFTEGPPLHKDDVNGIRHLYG
Outline: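 Protein thermal stability was measured with 2.8 μM proMMP9(20-445;ΔFnII) and 50 μM 1,8-ANS in 50 mM HEPES pH 7.0, 100 mM NaCl, 0.001% Tween-20, 2.5 mM MgCl2, 300 μM CaCl2, across serial compound dilutions. Samples were heated 40–90° C at 1° C/min with fluorescence read at 500 nm. Tm was fitted, and binding was derived from thermodynamic parameters obtained by DSC and ThermoFluor.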

T1 sequence (P14780 20-707 R574P): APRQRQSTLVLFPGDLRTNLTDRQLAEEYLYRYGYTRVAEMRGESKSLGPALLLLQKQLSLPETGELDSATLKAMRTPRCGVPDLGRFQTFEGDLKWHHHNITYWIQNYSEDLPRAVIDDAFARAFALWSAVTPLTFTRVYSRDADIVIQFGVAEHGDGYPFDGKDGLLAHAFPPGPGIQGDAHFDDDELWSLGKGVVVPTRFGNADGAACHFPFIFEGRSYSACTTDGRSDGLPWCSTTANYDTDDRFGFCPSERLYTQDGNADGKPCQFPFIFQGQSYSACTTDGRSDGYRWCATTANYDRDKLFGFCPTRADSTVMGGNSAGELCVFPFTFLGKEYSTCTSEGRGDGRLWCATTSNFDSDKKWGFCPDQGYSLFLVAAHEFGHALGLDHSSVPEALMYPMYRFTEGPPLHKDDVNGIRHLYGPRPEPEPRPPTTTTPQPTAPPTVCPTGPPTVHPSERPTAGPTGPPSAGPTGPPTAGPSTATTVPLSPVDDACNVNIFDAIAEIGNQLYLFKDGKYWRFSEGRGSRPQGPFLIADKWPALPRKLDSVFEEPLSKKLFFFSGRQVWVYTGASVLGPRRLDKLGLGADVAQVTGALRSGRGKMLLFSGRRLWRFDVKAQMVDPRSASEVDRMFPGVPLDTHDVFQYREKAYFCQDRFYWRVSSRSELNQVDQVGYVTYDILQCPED

Work on `CC(C)Oc1ccc(C(N)=O)cc1Nc1nc2c(ccc3[nH]c(Cl)nc32)s1` [Example 25, 3-(7-Chloro-6H-imidazo[4′,5′:3,4]benzo[2,1-d]thiazol-2-ylamino)-4-isopropoxy-benzamide.HCl] yielded an IC50 [1] of 490 nM, a Kd [2] of 200 nM and a Kd [3] of 2700 nM. The Kd [4] was 430 nM.

`CC(C)Oc1ccc(C(N)=O)cc1Nc1nc2c(ccc3nc(C(=O)N4CCN(C)CC4)[nH]c32)s1` [Example 26, 4-Isopropoxy-3-[7-(4-methyl-piperazine-1-carbonyl)-8H imidazo[4′,5′:3,4]benzo[2,1-d]thiazol-2-ylamino]-benzamide.HCl] was tested, and the IC50 [1] was 710 nM, the Kd [2] was 700 nM and the Kd [3] was 6100 nM. It also gave a Kd [4] of 850 nM.

Work on `Cc1nc2c3nc(Nc4cc(C(N)=O)ccc4OC(C)C)sc3ccc2n1C` [Example 27, 3-(6,7-Dimethyl-6H-imidazo[4′,5′:3,4]benzo[2,1-d]thiazol-2-ylamino)-4-isopropoxy-benzamide.HCl] yielded an IC50 [1] of 58 nM, a Kd [2] of 39 nM and a Kd [3] of 530 nM. The Kd [4] was 130 nM.

Compound `CC(C)Oc1ccc(S(N)(=O)=O)cc1Nc1nc2c(ccc3c2ncn3C)s1` [Example 28, 4-Isopropoxy-3-(6-methyl-6H-imidazo[4′,5′:3,4]benzo[2,1-d]thiazol-2-ylamino)-benzenesulfonamide.HCl] has an IC50 [1] of 180 nM, a Kd [2] of 2200 nM and a Kd [3] of 3500 nM. The Kd [4] was 880 nM.

With `CC(C)Oc1ccc(C(N)=O)cc1Nc1nc2c(ccc3[nH]cnc32)s1` [Example 29, 3-(6H-Imidazo[4′,5′:3,4]-benzo[2,1-d]thiazol-2-ylamino)-4-isopropoxy-benzamide.HCl] the IC50 [1] was 550 nM, the Kd [2] was 630 nM and the Kd [3] was 1400 nM. For the same compound, the Kd [4] was 800 nM.

In the case of `CC(C)Oc1ccc(C(N)=O)cc1Nc1nc2c(ccc3[nH]c(N4CCN(C)CC4)nc32)s1` [Example 31, 4-Isopropoxy-3-[7-(4-methyl-piperazin-1-yl)-6H-imidazo[4′,5′:3,4]benzo[2,1-d]thiazol-2-ylamino]-benzamide.HCl], the IC50 [1] is reported as 820 nM, the Kd [2] is reported as 820 nM and the Kd [3] is reported as 2300 nM. It also gave a Kd [4] of 930 nM.

Compound `CC(C)Oc1ccccc1Nc1nc2c(ccc3c2ncn3C)s1` [Example 32, (2-Isopropoxy-phenyl)-(6-methyl-6H-imidazo[4′,5′:3,4]benzo[2,1-d]thiazol-2-yl)-amine.HCl] has an IC50 [1] of 350 nM, a Kd [2] of 540 nM and a Kd [3] of 9200 nM. The Kd [4] was 3700 nM.

For `CCn1c(C)nc2c3nc(Nc4cc(C(N)=O)ccc4OC(C)C)sc3ccc21` [Example 34, 3-(6-Ethyl-7-methyl-6H-imidazo[4′,5′:3,4]benzo[2,1-d]thiazol-2-ylamino)-4-isopropoxy-benzamide.HCl], the IC50 [1] was 110 nM, the Kd [2] was 140 nM and the Kd [3] was 4000 nM. The Kd [4] was 120 nM.

Compound `CCn1c(C)nc2ccc3sc(Nc4cc(C(N)=O)ccc4OC(C)C)nc3c21` [Example 35, 3-(8-Ethyl-7-methyl-8H-imidazo[4′,5′:3,4]benzo[2,1-d]thiazol-2-ylamino)-4-isopropoxy-benzamide.HCl] has an IC50 [1] of 53 nM, a Kd [2] of 150 nM and a Kd [3] of 430 nM. It also gave a Kd [4] of 55 nM.

Work on `CCCn1c(C)nc2c3nc(Nc4cc(C(N)=O)ccc4OC(C)C)sc3ccc21` [Example 36, 4-Isopropoxy-3-(7-methyl-6-propyl-6H-imidazo[4′,5′:3,4]benzo[2,1-d]thiazol-2-ylamino)-benzamide.HCl] yielded an IC50 [1] of 300 nM, a Kd [2] of 710 nM and a Kd [3] of 2000 nM. The Kd [4] was 170 nM.

`CCOc1ccccc1Nc1nc2c(ccc3c2ncn3C)s1` [Example 37, (2-Ethoxy-phenyl)-(6-methyl-6H-imidazo[4′,5′:3,4]benzo[2,1-d]thiazol-2-yl)-amine.HCl] gave an IC50 [1] of 310 nM, a Kd [2] of 360 nM and a Kd [3] of 5900 nM. For the same compound, the Kd [4] was 2300 nM.

With `Cc1cc2ccc3sc(Nc4cc(C(N)=O)ccc4OC(C)C)nc3c2o1` [Example 38, 4-Isopropoxy-3-(7-methyl-8-oxa-3-thia-1-aza-as-indacen-2-ylamino)-benzamide.HCl] the IC50 [1] was 1500 nM, the Kd [2] was 950 nM and the Kd [3] was 1400 nM. For the same compound, the Kd [4] was 1000 nM.

`COc1ccc(C(N)=O)cc1Nc1nc2c(ccc3c2ncn3C)s1` [Example 39, 4-Methoxy-3-(6-methyl-6H-imidazo[4′,5′:3,4]benzo[2,1-d]thiazol-2-ylamino)-benzamide.HCl] was tested, and the IC50 [1] was 94 nM, the Kd [2] was 52 nM and the Kd [3] was 1500 nM. The Kd [4] was 440 nM.

In the case of `COc1ccc(Cl)cc1Nc1nc2c(ccc3c2ncn3C)s1` [Example 40, (5-Chloro-2-methoxy-phenyl)-(6-methyl-6H-imidazo[4′,5′:3,4]benzo[2,1-d]thiazol-2-yl)-amine.HCl], the IC50 [1] is reported as 170 nM, the Kd [2] is reported as 100 nM and the Kd [3] is reported as 1600 nM. The Kd [4] was 830 nM.

`COc1ccc(C)cc1Nc1nc2c(ccc3c2ncn3C)s1` [Example 41, (2-Methoxy-5-methyl-phenyl)-(6-methyl-6H-imidazo[4′,5′:3,4]benzo[2,1-d]thiazol-2-yl)-amine.HCl] showed an IC50 [1] of 720 nM, a Kd [2] of 900 nM and a Kd [3] of 7700 nM. It also gave a Kd [4] of 4200 nM.

Work on `COc1ccc(OC)c(Nc2nc3c(ccc4c3ncn4C)s2)c1` [Example 42, (2,5-Dimethoxy-phenyl)-(6-methyl-6H-imidazo[4′,5′:3,4]-benzo[2,1-d]thiazol-2-yl)-amine.HCl] yielded an IC50 [1] of 350 nM, a Kd [2] of 370 nM and a Kd [3] of 3400 nM. For the same compound, the Kd [4] was 1900 nM.

Compound `Cn1cnc2c3nc(Nc4ccccc4OCC(F)(F)F)sc3ccc21` [Example 43, (6-Methyl-6H-imidazo[4′,5′:3,4]-benzo[2,1-d]thiazol-2-yl)-[2-(2,2,2-trifluoro-ethoxy)-phenyl]-amine.HCl] has an IC50 [1] of 2500 nM, a Kd [2] of 2800 nM and a Kd [3] greater than 95000 nM. The Kd [4] was 17000 nM.

`COc1c(Nc2nc3c(ccc4c3ncn4C)s2)cc(C(N)=O)c(F)c1F` [Example 44, 2,3-Difluoro-4-methoxy-5-(6-methyl-6H-imidazo[4′,5′:3,4]-benzo[2,1-d]thiazol-2-ylamino)-benzamide.HCl] gave an IC50 [1] of 3800 nM, a Kd [2] of 6200 nM and a Kd [3] of 9900 nM. For the same compound, the Kd [4] was 25000 nM.
